Data: patent US20090317376A1, “Compositions And Methods For Lipo Modeling” (Georgetown University MEDICAL SCHOOL, priority 2005, published 2009)

Tests used:
3T3-L1 preadipocytes = test: Preadipocyte proliferation (mitogenic assay); format: cell-based, murine
Excerpt: (§1) To mimic stress-released NPY in vitro, conditioned media from, or coculture with, neuroblastoma SKNBE cells (a model of sympathetic neurons which release 0.1 pM NPY) is used to treat endothelial cells and 3T3-L1 preadipocytes. Both cell lines express all NPYRs but lack NPY (confirmed by RT-PCR and IHC, FIG. […] 6). […] When 3T3-L1 preadipocytes are cocultured with HMVEC, there is no significant mitogenic response between treated and untreated cells.
(§2) Co-culture: For mitogenic assay and expression studies, co-culture is performed in a Costar Transwell system. Cells are plated on the 6-well plates and the inserts with 0.4 μm Polyester membranes. After they reach 30% confluence, the inserts are placed into plates with other cells. Co-culture of neuroblastomas/SCG neurons with aECs are carried out in EC media and with preadipocytes—in preadipocyte growth media. […] After 48 h, the cells are counted with a coulter counter. […]
(§3) Mitogenic assays: 3T3-L1 pre-adipocytes are allowed to grow to 30% confluency before serum-starving the cells. […] Proliferation is determined by cell counting using a coulter counter (Beckman Coulter, Miami, Fla.). […] After 24 h, cells are harvested in a 96-well harvester (Tomtec) and counted in a Betaplate Liquid Scintillation Counter (Wallac).
(§4) 1. […] After 24 h, cells were harvested in a 96-well harvester (Tomtec) and counted in a Betaplate Liquid Scintillation Counter (Wallac). […]

endothelial cells = test: Endothelial cell proliferation (mitogenic assay); format: cell-based, human
Excerpt: as §1, §2, §3, §4

neuropeptide Y [NPY] was tested, and the preadipocyte proliferation (3T3-L1 preadipocytes; NPY treatment of 3T3-L1 preadipocytes) was “stimulated” and the endothelial cell proliferation (endothelial cells; NPY treatment of endothelial cells) was “stimulated”.

For `N=C(N)NCCC[C@H](NC(=O)CC1(CC(=O)N2CCN(C3c4ccccc4NC(=O)c4ccccc43)CC2)CCCC1)C(=O)NCCn1c(=O)n(-c2ccccc2)n(-c2ccccc2)c1=O` (stereo partly shown) [BIIE0246], the “block of NPY- and neuroblastoma-conditioned media-stimulated preadipocyte proliferation” value (3T3-L1 preadipocytes; BIIE0246 1 μM) was “blocked” and the “block of NPY- and neuroblastoma-conditioned media-stimulated endothelial cell proliferation” value (endothelial cells; BIIE0246 1 μM) was “blocked”.
